Reference: patent US9125913B2, “Bcl-2-selective apoptosis-inducing agents for the treatment of cancer and immune diseases” (AbbVie Inc., priority 2008, dated 2015)

test system: GST-Bcl-2; assay: TR-FRET binding assay, Bcl-2; settings: TR-FRET Ki values
How it was run: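 Compounds serially diluted in DMSO from 50 μM (2× starting concentration, 10% DMSO), mixed with GST-tagged protein, F-Bak peptide probe and Tb-labeled antibody, incubated 3 h at room temperature.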

Row | SMILES | Binding selectivity ratio (Bcl-XL Ki/Bcl-2 Ki)
1 | O=C(NS(=O)(=O)c1ccc(NCC2CCOCC2)c([N+](=O)[O-])c1)c1ccc(N2CCN(Cc3cc(OCCN4CCOCC4)ccc3-c3ccc(Cl)cc3)CC2)cc1Oc1ccccc1 [Example 115, 4-(4-{[4′-chloro-4-(2-morpholin-4-ylethoxy)-1,1′-biphenyl-2-yl]methyl}piperazin-1-yl)-N-({3-nitro-4-[(tetrahydro-2H-pyran-4-ylmethyl)amino]phenyl}sulfonyl)-2-phenoxybenzamide] | 156.4
2 | CN(C)CCCOc1ccc(-c2ccc(Cl)cc2)c(CN2CCN(c3ccc(C(=O)NS(=O)(=O)c4ccc(NCC5CCOCC5)c([N+](=O)[O-])c4)c(Oc4ccccc4)c3)CC2)c1 [Example 116, 4-[4-({4′-chloro-4-[3-(dimethylamino)propoxy]-1,1′-biphenyl-2-yl}methyl)piperazin-1-yl]-N-({3-nitro-4-[(tetrahydro-2H-pyran-4-ylmethyl)amino]phenyl}sulfonyl)-2-phenoxybenzamide] | 230.7
3 | O=C(NS(=O)(=O)c1ccc(NCC2CCOCC2)c(S(=O)(=O)C(F)(F)F)c1)c1ccc(N2CCN(Cc3cc(OCCN4CCOCC4)ccc3-c3ccc(Cl)cc3)CC2)cc1Oc1ccccc1 [Example 117, 4-(4-{[4′-chloro-4-(2-morpholin-4-ylethoxy)-1,1′-biphenyl-2-yl]methyl}piperazin-1-yl)-2-phenoxy-N-({4-[(tetrahydro-2H-pyran-4-ylmethyl)amino]-3-[(trifluoromethyl)sulfonyl]phenyl}sulfonyl)benzamide] | >287.1
4 | O=C(NS(=O)(=O)c1ccc(NCC2CCOCC2)c(S(=O)(=O)C(F)(F)F)c1)c1ccc(N2CCN(Cc3cc(OCCCN4CCCCC4)ccc3-c3ccc(Cl)cc3)CC2)cc1Oc1ccccc1 [Example 118, 4-(4-{[4′-chloro-4-(3-piperidin-1-ylpropoxy)-1,1′-biphenyl-2-yl]methyl}piperazin-1-yl)-2-phenoxy-N-({4-[(tetrahydro-2H-pyran-4-ylmethyl)amino]-3-[(trifluoromethyl)sulfonyl]phenyl}sulfonyl)benzamide] | >858.3
5 | CN(C)CCCOc1ccc(-c2ccc(Cl)cc2)c(CN2CCN(c3ccc(C(=O)NS(=O)(=O)c4ccc(NCC5CCOCC5)c(S(=O)(=O)C(F)(F)F)c4)c(Oc4ccccc4)c3)CC2)c1 [Example 119, 4-[4-({4′-chloro-4-[3-(dimethylamino)propoxy]-1,1′-biphenyl-2-yl}methyl)piperazin-1-yl]-2-phenoxy-N-({4-[(tetrahydro-2H-pyran-4-ylmethyl)amino]-3-[(trifluoromethyl)sulfonyl]phenyl}sulfonyl)benzamide] | 370.2
6 | CN(C)CCOc1cccc(-c2ccc(Cl)cc2)c1CN1CCN(c2ccc(C(=O)NS(=O)(=O)c3ccc(NCC4CCOCC4)c(S(=O)(=O)C(F)(F)F)c3)c(Oc3ccccc3)c2)CC1 [Example 124, 4-[4-({4′-chloro-3-[2-(dimethylamino)ethoxy]-1,1′-biphenyl-2-yl}methyl)piperazin-1-yl]-2-phenoxy-N-({4-[(tetrahydro-2H-pyran-4-ylmethyl)amino]-3-[(trifluoromethyl)sulfonyl]phenyl}sulfonyl)benzamide] | 220.1
7 | O=C(NS(=O)(=O)c1ccc(NCC2CCOCC2)c([N+](=O)[O-])c1)c1ccc(N2CCN(Cc3cc(OCCN4CCOCC4)ccc3-c3ccc(Cl)cc3)CC2)cc1Oc1ccc2[nH]ccc2c1 [Example 127, 4-(4-{[4′-chloro-4-(2-morpholin-4-ylethoxy)-1,1′-biphenyl-2-yl]methyl}piperazin-1-yl)-2-(1H-indol-5-yloxy)-N-({3-nitro-4-[(tetrahydro-2H-pyran-4-ylmethyl)amino]phenyl}sulfonyl)benzamide] | >1437.9
8 | CN(C)CCNc1ccc(S(=O)(=O)NC(=O)c2ccc(N3CCN(Cc4ccccc4-c4ccc(Cl)cc4)CC3)cc2Oc2ccccc2)cc1[N+](=O)[O-] [Example 153, 4-{4-[(4′-chloro-1,1′-biphenyl-2-yl)methyl]piperazin-1-yl}-N-[(4-{[2-(dimethylamino)ethyl]amino}-3-nitrophenyl)sulfonyl]-2-phenoxybenzamide] | 351
9 | CN(C)CCCCNc1ccc(S(=O)(=O)NC(=O)c2ccc(N3CCN(Cc4ccccc4-c4ccc(Cl)cc4)CC3)cc2Oc2ccccc2)cc1[N+](=O)[O-] [Example 156, 4-{4-[(4′-chloro-1,1′-biphenyl-2-yl)methyl]piperazin-1-yl}-N-[(4-{[4-(dimethylamino)butyl]amino}-3-nitrophenyl)sulfonyl]-2-phenoxybenzamide] | 53.1
10 | O=C(NS(=O)(=O)c1ccc(NC2CCN(S(=O)(=O)c3ccccc3)CC2)c([N+](=O)[O-])c1)c1ccc(N2CCN(Cc3ccccc3-c3ccc(Cl)cc3)CC2)cc1Oc1ccccc1 [Example 157, 4-{4-[(4′-chloro-1,1′-biphenyl-2-yl)methyl]piperazin-1-yl}-N-[(3-nitro-4-{[1-(phenylsulfonyl)piperidin-4-yl]amino}phenyl)sulfonyl]-2-phenoxybenzamide] | >148.2
11 | O=C(NS(=O)(=O)c1ccc(NC2CCN(S(=O)(=O)c3cccc4cccnc34)CC2)c([N+](=O)[O-])c1)c1ccc(N2CCN(Cc3ccccc3-c3ccc(Cl)cc3)CC2)cc1Oc1ccccc1 [Example 158, 4-{4-[(4′-chloro-1,1′-biphenyl-2-yl)methyl]piperazin-1-yl}-N-[(3-nitro-4-{[1-(quinolin-8-ylsulfonyl)piperidin-4-yl]amino}phenyl)sulfonyl]-2-phenoxybenzamide] | >10.2
12 | CN(C)CC[C@H](Nc1ccc(S(=O)(=O)NC(=O)c2ccc(N3CCN(Cc4ccccc4-c4ccc(Cl)cc4)CC3)cc2Oc2ccccc2)cc1[N+](=O)[O-])c1cccs1 [Example 161, 4-{4-[(4′-chloro-1,1′-biphenyl-2-yl)methyl]piperazin-1-yl}-N-[(4-{[(1S)-3-(dimethylamino)-1-thien-2-ylpropyl]amino}-3-nitrophenyl)sulfonyl]-2-phenoxybenzamide] | >386.0
13 | O=C(NS(=O)(=O)c1ccc(NCc2cccs2)c([N+](=O)[O-])c1)c1ccc(N2CCN(Cc3ccccc3-c3ccc(Cl)cc3)CC2)cc1Oc1ccccc1 [Example 162, 4-{4-[(4′-chloro-1,1′-biphenyl-2-yl)methyl]piperazin-1-yl}-N-({3-nitro-4-[(thien-2-ylmethyl)amino]phenyl}sulfonyl)-2-phenoxybenzamide] | 123.8
14 | O=C(NS(=O)(=O)c1ccc(NCC2CCOCC2)c(S(=O)(=O)C(F)(F)F)c1)c1ccc(N2CCN(Cc3ccccc3-c3ccc(Cl)cc3)CC2)cc1Oc1ccccc1 [Example 163, 4-{4-[(4′-chloro-1,1′-biphenyl-2-yl)methyl]piperazin-1-yl}-2-phenoxy-N-({4-[(tetrahydro-2H-pyran-4-ylmethyl)amino]-3-[(trifluoromethyl)sulfonyl]phenyl}sulfonyl)benzamide] | >117.5
15 | O=C(NS(=O)(=O)c1ccc(NCCn2ccnn2)c([N+](=O)[O-])c1)c1ccc(N2CCN(Cc3ccccc3-c3ccc(Cl)cc3)CC2)cc1Oc1ccccc1 [Example 164, 4-{4-[(4′-chloro-1,1′-biphenyl-2-yl)methyl]piperazin-1-yl}-N-[(3-nitro-4-{[2-(1H-1,2,3-triazol-1-yl)ethyl]amino}phenyl)sulfonyl]-2-phenoxybenzamide] | 143.3
16 | O=C(NS(=O)(=O)c1ccc(NCCn2nccn2)c([N+](=O)[O-])c1)c1ccc(N2CCN(Cc3ccccc3-c3ccc(Cl)cc3)CC2)cc1Oc1ccccc1 [Example 165, 4-{4-[(4′-chloro-1,1′-biphenyl-2-yl)methyl]piperazin-1-yl}-N-[(3-nitro-4-{[2-(2H-1,2,3-triazol-2-yl)ethyl]amino}phenyl)sulfonyl]-2-phenoxybenzamide] | 44.5
17 | O=C(NS(=O)(=O)c1ccc(NCCc2ccncc2)c([N+](=O)[O-])c1)c1ccc(N2CCN(Cc3ccccc3-c3ccc(Cl)cc3)CC2)cc1Oc1ccccc1 [Example 169, 4-{4-[(4′-chloro-1,1′-biphenyl-2-yl)methyl]piperazin-1-yl}-N-({3-nitro-4-[(2-pyridin-4-ylethyl)amino]phenyl}sulfonyl)-2-phenoxybenzamide] | 91.4
18 | CC(c1ccccc1-c1ccc(Cl)cc1)N1CCN(c2ccc(C(=O)NS(=O)(=O)c3ccc(NCC4CCOCC4)c([N+](=O)[O-])c3)c(Oc3cccc4[nH]ccc34)c2)CC1 (centres unmarked) [Example 175, 4-{4-[1-(4′-chloro-1,1′-biphenyl-2-yl)ethyl]piperazin-1-yl}-2-(1H-indol-4-yloxy)-N-({3-nitro-4-[(tetrahydro-2H-pyran-4-ylmethyl)amino]phenyl}sulfonyl)benzamide] | >6600
19 | CC1(C)CCC(CN2CCN(c3ccc(C(=O)NS(=O)(=O)c4ccc(NCC5(N)CCOCC5)c([N+](=O)[O-])c4)c(Oc4cccc5[nH]ccc45)c3)CC2)=C(c2ccc(Cl)cc2)C1 [Example 176, N-[(4-{[(4-aminotetrahydro-2H-pyran-4-yl)methyl]amino}-3-nitrophenyl)sulfonyl]-4-(4-{[2-(4-chlorophenyl)-4,4-dimethylcyclohex-1-en-1-yl]methyl}piperazin-1-yl)-2-(1H-indol-4-yloxy)benzamide] | 177.8
20 | CC1(C)CCC(CN2CCN(c3ccc(C(=O)NS(=O)(=O)c4ccc(NCC5CCOCC5)c([N+](=O)[O-])c4)c(Oc4ccc5[nH]ccc5c4)c3)CC2)=C(c2ccc(Cl)cc2)C1 [Example 177, 4-(4-{[2-(4-chlorophenyl)-4,4-dimethylcyclohex-1-en-1-yl]methyl}piperazin-1-yl)-2-(1H-indol-5-yloxy)-N-({3-nitro-4-[(tetrahydro-2H-pyran-4-ylmethyl)amino]phenyl}sulfonyl)benzamide] | 799.7
